Assay [1] deals with T1, 17-beta-hydroxysteroid dehydrogenase type 2 (Homo sapiens) (UniProt P37059).
T1 sequence (whole entry): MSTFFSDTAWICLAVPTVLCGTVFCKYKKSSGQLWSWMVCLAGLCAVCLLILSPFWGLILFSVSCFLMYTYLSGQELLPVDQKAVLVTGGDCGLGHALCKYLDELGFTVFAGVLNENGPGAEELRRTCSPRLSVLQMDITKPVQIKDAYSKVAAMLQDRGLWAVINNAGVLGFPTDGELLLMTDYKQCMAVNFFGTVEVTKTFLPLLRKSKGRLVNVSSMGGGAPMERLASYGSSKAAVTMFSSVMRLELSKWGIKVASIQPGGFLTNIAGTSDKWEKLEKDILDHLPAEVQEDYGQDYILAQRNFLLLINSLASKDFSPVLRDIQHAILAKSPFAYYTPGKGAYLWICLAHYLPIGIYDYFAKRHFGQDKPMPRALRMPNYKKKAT
Briefly: Inhibition of human recombinant 17beta-HSD2 at 1 uM by cell-free assay.

Assay [2] deals with T1, 17-beta-hydroxysteroid dehydrogenase type 2 (Homo sapiens). Briefly: Inhibition of human recombinant 17beta-HSD2 at 0.1 uM by cell-free assay.
Assay [3] addresses T2, 17-beta-hydroxysteroid dehydrogenase type 1 (Homo sapiens) (UniProt P14061).
T2 sequence (whole entry): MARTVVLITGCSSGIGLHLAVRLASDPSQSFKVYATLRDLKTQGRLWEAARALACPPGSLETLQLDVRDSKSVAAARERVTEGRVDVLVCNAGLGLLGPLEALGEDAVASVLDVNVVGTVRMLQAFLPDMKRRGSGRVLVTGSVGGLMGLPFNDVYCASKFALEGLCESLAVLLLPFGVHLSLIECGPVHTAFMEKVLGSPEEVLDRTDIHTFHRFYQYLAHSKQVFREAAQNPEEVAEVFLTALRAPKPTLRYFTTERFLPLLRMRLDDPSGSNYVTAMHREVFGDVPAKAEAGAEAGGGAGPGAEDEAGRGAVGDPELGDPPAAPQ
Briefly: Inhibition of human recombinant 17beta-HSD1 expressed in human MCF7 cells at 1 uM by cell-based assay.

Assay [4] deals with T2, 17-beta-hydroxysteroid dehydrogenase type 1 (Homo sapiens). Briefly: Inhibition of human recombinant 17beta-HSD1 at 1 uM by cell-free assay. It counts as single protein.
The target in the next assay is T3, Estrogen receptor (Homo sapiens, UniProt P03372).
T3 sequence (P03372 whole entry): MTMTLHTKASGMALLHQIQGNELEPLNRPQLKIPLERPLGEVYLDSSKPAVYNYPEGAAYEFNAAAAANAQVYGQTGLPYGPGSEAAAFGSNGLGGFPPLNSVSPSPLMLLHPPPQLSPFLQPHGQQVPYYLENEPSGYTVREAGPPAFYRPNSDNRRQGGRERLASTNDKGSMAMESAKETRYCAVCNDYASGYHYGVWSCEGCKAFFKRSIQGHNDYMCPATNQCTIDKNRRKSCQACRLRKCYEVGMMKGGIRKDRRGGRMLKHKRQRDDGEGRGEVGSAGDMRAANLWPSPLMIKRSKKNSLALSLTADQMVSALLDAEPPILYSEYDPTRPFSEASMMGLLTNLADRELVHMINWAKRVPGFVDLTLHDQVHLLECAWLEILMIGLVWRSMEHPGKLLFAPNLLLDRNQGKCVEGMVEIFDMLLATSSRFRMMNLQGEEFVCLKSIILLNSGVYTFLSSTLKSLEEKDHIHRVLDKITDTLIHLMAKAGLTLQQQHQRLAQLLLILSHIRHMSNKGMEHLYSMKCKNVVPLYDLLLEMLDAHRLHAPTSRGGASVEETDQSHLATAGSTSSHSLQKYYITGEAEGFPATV
Briefly: Activity at human recombinant ERalpha by fluorescence polarization assay. A general note: In fluorescence polarisation assays a small probe gives low polarisation when free and higher when bound to something large.

Assay [5] concerns the target T2, 17-beta-hydroxysteroid dehydrogenase type 1 (Homo sapiens). Briefly: Inhibition of human recombinant 17beta-HSD1 at 0.1 uM by cell-free assay. It counts as single protein.
The target is the same in assay [6]. Briefly: Inhibition of human recombinant 17beta-HSD1 expressed in human MCF7 cells at 0.1 uM by cell-based assay.
Another assay addresses Estrogen receptor beta (Homo sapiens, UniProt Q92731). Briefly: Activity at human recombinant ERbeta by fluorescence polarization assay.

The source made the active and inactive calls. The calls are words filed in the database; no cut-off is given here. Where only a bound is given, the exact number is not on record here.

A word on the inhibition: it is how much of the control response was suppressed. What is called EC50 is the concentration at which the effect is half-maximal.

Estrogen receptor beta, sequence (Q92731 whole entry): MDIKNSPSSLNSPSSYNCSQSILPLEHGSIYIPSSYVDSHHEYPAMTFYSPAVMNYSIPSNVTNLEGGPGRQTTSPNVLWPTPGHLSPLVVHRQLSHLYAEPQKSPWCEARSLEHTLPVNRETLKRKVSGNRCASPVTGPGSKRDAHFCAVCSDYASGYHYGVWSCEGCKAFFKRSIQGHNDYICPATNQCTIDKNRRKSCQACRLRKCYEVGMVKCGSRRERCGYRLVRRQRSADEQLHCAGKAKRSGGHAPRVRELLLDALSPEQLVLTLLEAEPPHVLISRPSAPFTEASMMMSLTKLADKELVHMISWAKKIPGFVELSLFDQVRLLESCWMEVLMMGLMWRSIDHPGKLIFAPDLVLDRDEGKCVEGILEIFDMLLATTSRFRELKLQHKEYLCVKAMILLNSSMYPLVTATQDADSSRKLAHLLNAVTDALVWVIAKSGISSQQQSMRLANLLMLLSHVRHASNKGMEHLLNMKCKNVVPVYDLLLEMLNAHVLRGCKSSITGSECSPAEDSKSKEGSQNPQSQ

In the case of `O=CC1=C(Sc2cccc(O)c2)c2sc3nc4n(c(=O)c3c2CC1)CCCCC4`, the inhibition is 48.1% in assay [1]; 40.9% in assay [2]; 84.1% in assay [3]; 96.5% in assay [4]; 94.2% in assay [5]; 52.6% in assay [6]. For the same molecule, the EC50 on Estrogen receptor and on Estrogen receptor beta was > 1000 nM throughout.
Turning to `O=CC1=C(SC2CCCC2)c2sc3nc4n(c(=O)c3c2CC1)CCCCC4`, the inhibition entry in assay [1] and in assay [2] was “inactive” each time. Also, the inhibition in assay [3] came out at 80.5%; in assay [4], 87.4%; in assay [5] it was 46.6%; in assay [6] it was 40.3%. Moreover, the EC50 at Estrogen receptor was > 10000 nM; at Estrogen receptor beta, > 1000 nM.
For `CC(C)(C)SC1=C(C=O)CCc2c1sc1nc3n(c(=O)c21)CCCCC3`, the inhibition came out at 1.2% in assay [1]; 87% in assay [3]; 89.6% in assay [4]; 49.8% in assay [5]; 33.6% in assay [6]. For the same molecule, in assay [2], the inhibition entry is “inactive”. The EC50 was > 10000 nM on Estrogen receptor and > 1000 nM on Estrogen receptor beta.
On to `CCCSC1=C(C=O)CCc2c1sc1nc3n(c(=O)c21)CCCCCC3`, for which the inhibition in assay [1] was determined as 36.9%; in assay [2] it was 31.4%; in assay [3], 57%; in assay [4] it was 74.7%; in assay [5], 63.3%; in assay [6] it was 15.6%. Also, the EC50 on Estrogen receptor and on Estrogen receptor beta was > 1000 nM each time.
Take `CCCSC1=C(C=O)CCc2c1sc1nc3n(c(=O)c21)CCCCC3`: the inhibition is 5.3% in assay [1]; 100% in assay [3]; 95.2% in assay [4]; 72.9% in assay [5]; 74% in assay [6]. Moreover, the inhibition result in assay [2] is “inactive”. Moreover, the EC50 on Estrogen receptor and at Estrogen receptor beta was > 1000 nM each time.
Turning to `O=CC1=C(SC2CCCCC2)c2sc3nc4n(c(=O)c3c2CC1)CCCCC4`, the inhibition result in assay [1] and in assay [2] was “inactive” throughout. Further, the inhibition stood at 63.9% in assay [3], 82.2% in assay [4], 51.2% in assay [5] and 32.7% in assay [6]. Further, the EC50 at Estrogen receptor is > 10000 nM; at Estrogen receptor beta, > 1000 nM.
In the case of `O=Cc1ccc2c(sc3nc4n(c(=O)c32)CCCCC4)c1Sc1ccccc1`, the inhibition result in assay [1] and in assay [2] was “inactive” in each case. Also, the inhibition was 87.9% in assay [3], 88.4% in assay [4], 26.9% in assay [5] and 15.1% in assay [6]. Further, the EC50 on Estrogen receptor and on Estrogen receptor beta was > 1000 nM in each case.

The values are drawn from ChEMBL document CHEMBL1154617, “Synthesis and biological evaluation of 17beta-hydroxysteroid dehydrogenase type 1 (17beta-HSD1) inhibitors based on a thieno[2,3-d]pyrimidin-4(3H)-one core” (J Med Chem, 2009).
